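Step 1: Grow cells in 96-well plates. Step 2: Expose to compound for 48 hours at 5 concentrations. Step 3: Interpolate endpoints linearly; if unreached, use highest concentration. GI50 is the concentration that inhibits growth by half.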 Calls of active or inactive are those of the source. Rule as the data show it: active = GI50 up to about 1.1 µM and inactive = higher.
How the values were obtained:
Test in all cases: DTP human tumour cell line panel, 48 h
[1] = system: UACC-257
[2] = system: HOP-62
[3] = system: SNB-19
[4] = system: SK-OV-3
[5] = system: SW-620
[6] = system: HOP-92
[7] = system: HCT-15
[8] = system: OVCAR-8
[9] = system: 786-0
[10] = system: UACC-62
[11] = system: SNB-75
[12] = system: K562
[13] = system: SF-539
[14] = system: ACHN
[15] = system: NCI-H23
[16] = system: NCI/ADR-RES
[17] = system: PC-3
[18] = system: MDA-N
[19] = system: DU-145
[20] = system: T47D

| Compound | GI50 [1] | GI50 [2] | GI50 [3] | GI50 [4] | GI50 [5] | GI50 [6] | GI50 [7] [µM] | GI50 [8] | GI50 [9] | GI50 [10] | GI50 [11] | GI50 [12] | GI50 [13] | GI50 [14] | GI50 [15] | GI50 [16] | GI50 [17] | GI50 [18] | GI50 [19] | GI50 [20] |
| --- | --- | --- | --- | --- | --- | --- | --- | --- | --- | --- | --- | --- | --- | --- | --- | --- | --- | --- | --- | --- |
| Cc1nc2c3c(ccc2nc1O)C(=O)c1ccccc1C3=O | > 100 µM (inactive) | 40.4 µM (inactive) | > 100 µM (inactive) | 24.5 µM (inactive) | 56.2 µM (inactive) | 96.2 µM (inactive) | 48 | 80 µM (inactive) | > 100 µM (inactive) | 55.3 µM (inactive) | 15.6 µM (inactive) | > 100 µM (inactive) | 40.8 µM (inactive) | 24.4 µM (inactive) | 66.7 µM (inactive) | – | – | – | – | – |
| Cc1nnc([C@@]2(C)CC[C@H]3[C@@H](CCC4=CC(=O)CC[C@@]43C)[C@@H]2CC#N)o1 | > 100 µM (inactive) | > 100 µM (inactive) | > 100 µM (inactive) | > 100 µM (inactive) | > 100 µM (inactive) | > 100 µM (inactive) | > 100 | > 100 µM (inactive) | > 100 µM (inactive) | > 100 µM (inactive) | 41 µM (inactive) | > 100 µM (inactive) | > 100 µM (inactive) | > 100 µM (inactive) | > 100 µM (inactive) | > 100 µM (inactive) | > 100 µM (inactive) | > 100 µM (inactive) | – | – |
| Cc1cccc(C)c1NC(=O)/C(=N/NC(N)=S)C(C)C(=O)c1ccc(Cl)cc1 (configuration not stated) | > 100 µM (inactive) | > 100 µM (inactive) | > 100 µM (inactive) | > 100 µM (inactive) | > 100 µM (inactive) | > 100 µM (inactive) | > 100 | > 100 µM (inactive) | > 100 µM (inactive) | > 100 µM (inactive) | > 100 µM (inactive) | > 100 µM (inactive) | > 100 µM (inactive) | > 100 µM (inactive) | > 100 µM (inactive) | – | – | – | – | – |
| COc1cc2c(cc1OC)C1C=NC(C(=O)O)(C2)c2ccccc21 (configuration not stated) | > 100 µM (inactive) | > 100 µM (inactive) | > 100 µM (inactive) | > 100 µM (inactive) | > 100 µM (inactive) | > 100 µM (inactive) | > 100 | > 100 µM (inactive) | > 100 µM (inactive) | > 100 µM (inactive) | > 100 µM (inactive) | 23 µM (inactive) | > 100 µM (inactive) | – | > 100 µM (inactive) | – | – | – | – | – |
| COC(=O)C(CCS(=O)(=O)CC(=O)C(=O)Nc1cccc(C(C)=O)c1)C(=O)OC | > 100 µM (inactive) | > 100 µM (inactive) | > 100 µM (inactive) | > 100 µM (inactive) | > 100 µM (inactive) | > 100 µM (inactive) | > 72.1 | > 100 µM (inactive) | > 100 µM (inactive) | > 100 µM (inactive) | > 100 µM (inactive) | > 61 µM (inactive) | > 100 µM (inactive) | > 100 µM (inactive) | > 100 µM (inactive) | – | – | – | – | – |
| CC(C)(C)OC(=O)N1CCc2[nH][nH]c(=O)c2C1 | > 100 µM (inactive) | > 100 µM (inactive) | > 100 µM (inactive) | > 100 µM (inactive) | > 100 µM (inactive) | > 100 µM (inactive) | > 100 | > 100 µM (inactive) | > 100 µM (inactive) | > 100 µM (inactive) | – | > 100 µM (inactive) | > 100 µM (inactive) | – | > 100 µM (inactive) | > 100 µM (inactive) | > 100 µM (inactive) | > 100 µM (inactive) | > 100 µM (inactive) | – |
| N/N=C1\C(=O)N(C2CCCCC2)C(=O)C1C(=O)NC1CCCCC1 (configuration not stated) | 87.9 µM (inactive) | > 100 µM (inactive) | > 100 µM (inactive) | 47.5 µM (inactive) | > 100 µM (inactive) | > 100 µM (inactive) | > 100 | > 100 µM (inactive) | > 100 µM (inactive) | > 100 µM (inactive) | 56.4 µM (inactive) | > 100 µM (inactive) | > 100 µM (inactive) | > 100 µM (inactive) | > 100 µM (inactive) | – | – | – | – | – |
| CN(C)c1ccc(C=C2C(=O)N(c3ccccc3)N(c3ccccc3)C2=O)cc1 | – | > 100 µM (inactive) | 74.3 µM (inactive) | > 100 µM (inactive) | > 100 µM (inactive) | 15.6 µM (inactive) | > 100 | 56.5 µM (inactive) | 71.1 µM (inactive) | > 100 µM (inactive) | 53.7 µM (inactive) | 61.4 µM (inactive) | – | 81.8 µM (inactive) | > 100 µM (inactive) | – | 78 µM (inactive) | > 100 µM (inactive) | > 100 µM (inactive) | – |
| NS(=O)(=O)c1ccc2c(c1)OCCOCCOCCOCCO2 | > 100 µM (inactive) | > 100 µM (inactive) | > 100 µM (inactive) | > 100 µM (inactive) | > 100 µM (inactive) | – | > 100 | > 100 µM (inactive) | > 100 µM (inactive) | > 100 µM (inactive) | > 100 µM (inactive) | > 100 µM (inactive) | > 100 µM (inactive) | > 100 µM (inactive) | > 100 µM (inactive) | – | > 100 µM (inactive) | – | > 100 µM (inactive) | > 100 µM (inactive) |

Source: ChEMBL document CHEMBL1201862, “PubChem BioAssay data set” (2004)
